The test system of one data set is transplanted S180 tumor. The data set is described as follows: anti-tumor rate in ICR mice with transplanted S180 tumor. Format: in vivo. As to the method: The model of ICR mice with transplanted 5180 sarcoma in vivo was used to determine the anticancer effect of the compound. Specific steps are as follows:
Samples: cis-3-hydroxy-acrylic acid diammine platinum (II), serial number: SIPI-601.
Positive control: Oxaliplatin for injection, Jiangsu Hengrui Medicine Co., Ltd, lot number: 13082811, 50 mg per bottle.
Samples: SIPI-601, which was dissolved by a 10% glucose injection.
Positive control: Oxaliplatin for injection, which was dissolved by a 10% glucose injection.
(§1) 32 ICR mice, male, weight 18-20 g, were supplied by Sippr/Bk Laboratory Animals Ltd, certification: SCXK (shanghai) 2008-2016.
Tumor cell trains: two ICR mice with S180 ascites tumor, passage cultured by pharmacological office, Shanghai State Institute of Pharmaceutical Industry (SIPI).
(§2) The ascites of two vigorous growing ICR mice with S180 ascites tumor was extracted under a sterile condition, diluted 6 times with saline water, axilla subcutaneously inoculated with a dosage of 0.2 ml per mouse. The mice were randomly divided into four groups the next day, 8 for each group.
(§3) The groups were blank control group, SIPI-601 60 mg/kg iv group (administered once every three days), SIPI-601 120 mg/kg iv group (administered once every six days), Oxaliplatin 9 mg/kg iv group (administered once every other day).
(§4) The mice were administered the second day after inoculation. After the treatment, the survived animals were euthanatized, the tumors were taken and weighed to calculate anti-tumor rate.

The nature of data set [1]: body weight of ICR mice with transplanted S180 tumor. Format: in vivo. How it is done: as §1, §2, §3, §4
In data set [2] the test system is human poorly differentiated gastric cancer cell stain BGC-823. In words: MTT cytotoxicity on human tumor cell strains in vitro. The class given is cell-based. The note with it: BGC-823, MTT, 48 hours. As to the method:
(§5) MTT method was employed to test the cytotoxic effect caused by the compound on human tumor cell stains in vitro. Specific steps are as follows:
(§6) The tumor cells (human poorly differentiated gastric cancer cell stain BGC-823, human breast cancer cell strain Bcap37, human oral cancer cell strain KB) was cultured in a 10% calf serum, inoculated into a 96-well plate (2×10^5 cells per well) at 37° C. in an incubator with 5% CO2. The cis-3-hydroxy-acrylic acid diammine platinum (II) was dissolved in DMSO to obtain a solution with a concentration of 10 mg/ml. The solution was diluted to the required concentration with a phosphate buffer, and then added into the wells of the 96-well plate respectively, each concentration was for two wells, 10 μl per well, therefore, each concentration has two parallel tests. DMSO was diluted accordingly in a gradient manner and added into the wells of the 96-well plate as controls.
(§7) After the 96-well plate was kept at 37° C. in the incubator with 5% CO2 for 48 hours, 20 μl 5 mg/ml MTT solution was added into per well. Then the 96-well plate were further kept for 3-4 hours in the incubator at the same temperature. 100 μl solvent was added into per well and the 96-well plate was kept warm in the incubator overnight to make the generated formazan crystals dissolve sufficiently. The light absorption value at 492 nm was determined.
(§8) A relative survival rate of cells was calculated according to the light absorption value after the treatment of the compound. The calculation formula is as follows: […]
(§9) The IC50 of the compound against each kind of tumor cells was calculated though software.

Data set [3] concerns human oral cancer cell strain KB. Described as above. The class given is cell-based. Particulars: 48 hours. How it is done:
as §5, §6, §7, §8, §9

The subject of data set [4] is human breast cancer cell strain Bcap37. The description is as above. Format: cell-based. The note with it: 48 hours. As to the method: as §5, §6, §7, §8, §9
Data set [5] can be described thus: water-solubility at room temperature.
The mark [6] stands for this setting: 9 mg/kg iv, once every other day.
Setting [7] is: 60 mg/kg iv, once every three days.
Setting [8] is: 120 mg/kg iv, once every six days.

`O=C1[O][Pt]2([NH][C@@H]3CCCC[C@H]3[NH]2)[O]C1=O` [Oxaliplatin, reference compound] showed a The anti-tumor rate in the data set with transplanted S180 tumor (setting [6]) of 62.42%. Further, the “The final body weight after the removal of tumor” value in data set [1] (setting [6]) is on record as 19.92 g.

Broadly, the IC50 is the concentration at which inhibition is half-maximal. Low values mean higher potency, high ones lower potency. On to “cis-3-hydroxy-acrylic acid diammine platinum (II) [SIPI-601]”, for which the figures for the half-maximal inhibitory concentration (IC50) in data set [2], in data set [3] and in data set [4] were 2.28 µg/mL, 33.94 µg/mL and 21.58 µg/mL, respectively. Also, the water-solubility entry in data set [5] is “greater than 25 mg/mL”. Besides, the The anti-tumor rate in the data set on transplanted S180 tumor (setting [7]) is on record as 64.39%; in the data set with transplanted S180 tumor (setting [8]) it was 66.83%. Further, the “The final body weight after the removal of tumor” value was 22.46 g in data set [1] (setting [7]) and 20.34 g in data set [1] (setting [8]).

For the origin of these results see patent US9650403B2, “Platinum (II) compound, preparation method therefor, and pharmaceutical composition and application thereof” (SHANGHAI INSTITUTE OF PHARMACEUTICAL INDUSTRY, priority 2013, dated 2017).
